Experimental data as given in US12351574B2, “Selective ligands for modulation of GIRK channels” (Northeastern University, priority 2018, dated 2025).

Columns and labels:
[1] = biological target: T1, GIRK1-S65Y with GIRK4 (Homo sapiens, UniProt P48544+P48549, S65Y); assay: 5-ptaseOCRL current inhibition, GIRK1/4 channels containing GIRK1-S65Y subunits; assay type: cell-based
T1 construct: expressed in transfected cells; host or cells: HEK293-T cells
T1 sequence (P48549 1-501 S65Y): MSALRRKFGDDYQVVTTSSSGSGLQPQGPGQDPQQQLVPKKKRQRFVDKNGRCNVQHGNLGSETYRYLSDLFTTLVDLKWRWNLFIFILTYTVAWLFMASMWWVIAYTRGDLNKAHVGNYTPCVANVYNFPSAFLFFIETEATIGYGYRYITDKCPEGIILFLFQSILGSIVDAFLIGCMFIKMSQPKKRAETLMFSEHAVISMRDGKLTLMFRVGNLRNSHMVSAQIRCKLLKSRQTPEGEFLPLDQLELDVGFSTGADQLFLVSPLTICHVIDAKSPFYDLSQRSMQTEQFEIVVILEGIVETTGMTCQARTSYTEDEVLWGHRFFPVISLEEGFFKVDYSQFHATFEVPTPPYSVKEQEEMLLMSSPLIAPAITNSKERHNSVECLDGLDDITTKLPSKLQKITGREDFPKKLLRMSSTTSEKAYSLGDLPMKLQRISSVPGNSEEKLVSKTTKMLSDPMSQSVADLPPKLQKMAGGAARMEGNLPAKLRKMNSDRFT
T1 sequence (P48544 1-419): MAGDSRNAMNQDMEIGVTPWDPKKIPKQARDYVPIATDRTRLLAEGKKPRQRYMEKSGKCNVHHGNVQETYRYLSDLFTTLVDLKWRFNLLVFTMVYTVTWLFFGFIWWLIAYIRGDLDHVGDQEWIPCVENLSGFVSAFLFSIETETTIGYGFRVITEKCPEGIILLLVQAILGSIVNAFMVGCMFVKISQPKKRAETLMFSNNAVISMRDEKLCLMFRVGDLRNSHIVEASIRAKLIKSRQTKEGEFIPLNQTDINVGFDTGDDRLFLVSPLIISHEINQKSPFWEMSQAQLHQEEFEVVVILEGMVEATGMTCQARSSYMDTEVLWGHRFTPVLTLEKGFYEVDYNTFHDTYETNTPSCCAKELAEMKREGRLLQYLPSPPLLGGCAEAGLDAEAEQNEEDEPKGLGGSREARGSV
Description: To identify changes in specific channel residue interactions with PIP2 upon ligand binding, the inventors carried out Principal Component Analysis (PCA) in the presence and absence of ML297 and GAT1508. The PCA analysis implicated changes in the slide (or interfacial) helix interactions with PIP2 upon ligand binding. Polar interactions could be formed between GIRK2^FD(Y76) and GIRK4^FD(Y71) with the P(4,5) of PIP2 when ML297 was bound to the same subunit (FIG. 39 top, FIG. 40). In contrast, when GAT1508 was bound this interaction was retained by GIRK2^FD but not GIRK4^FD (FIG. 39 bottom, FIG. 40). The corresponding GIRK1(S65) residue (FIG. 41, highlighted with vertical rectangle) could be serving the same role in stabilizing the phosphoinositol headgroup for interactions with non-ligand binding subunits. As polar residues, both Ser and Tyr could form H-bond interactions with PIP2. […]
Patch-clamp recording: Whole-cell currents were recorded with an Axopatch 200B amplifier (Molecular Devices) controlled via a USB-interface (National Instruments) using WinWCP software (University of Strathclyde). […] The barium-sensitive component of the current, observed when cells were perfused with the high-K^+ buffer, was analyzed and was determined by perfusing 5 mM BaCl2 in the high-K^+ buffer at the end of each experiment. […]

[2] = system: right atrium of isolated Langendorff-perfused mouse heart; assay: optical mapping of atrial action potential duration in isolated Langendorff-perfused mouse heart; conditions: for atrial optical action potential duration 70% repolarization (APD70), quantification: 2.4 μM, 10 Hz stimulation, FIGS. 23A-23B, controls 23.93 (ML297) and 23.1 (GAT1508); for average APD70 of the map of the stimulated right atrium: 10 minutes after 2.4 μM, 10 Hz, FIG. 22, controls 23.9 (ML297) and 21.8 (GAT1508)
Method: Optical mapping studies in isolated hearts: Isolated hearts of C57BL/6 mice, four to six months of age, were retrogradely perfused with Tyrode's solution in the Langendorff mode. The preparations were maintained at 37° C., and stained with a bolus of a voltage sensitive dye (0.25 ml, 10 μM Di-4-ANEPPS, Molecular Probes) and imaged with a CCD camera (RedShirt Imaging), 80×80 pixels, 85 μm per pixel, and 1000 frames per second. […] A bipolar, silver tip stimulation electrode was used to pace the right atrium (2.5 5 ms pulses, 2× diastolic threshold) at 10 Hz using an AD Instrument stimulation platform. ML297 or GAT1508 at 2.4 μM were introduced into the perfusate. The action potential duration at 70% repolarization (APD70), was quantified as the inventors have done extensively.

Row | τ of current-inhibition (in words) [1] | atrial optical action potential duration 70% repolarization (APD70), quantification [2] [ms] | average APD70 of the map of the stimulated right atrium [2] [ms] | SMILES
1 | not statistically increased | 23.57 | 20.3 | Cc1cc(NC(=O)Nc2ccc(Br)s2)n(-c2ccccc2)n1 [GAT1508, 1-(5-bromothiophen-2-yl)-3-(3-methyl-1-phenyl-1H-pyrazol-5-yl)urea]
2 | not statistically increased | 16.53 | 16 | Cc1cc(NC(=O)Nc2ccc(F)c(F)c2)n(-c2ccccc2)n1 [ML297, reference compound]
